Data from patent publication US9340510B2, “Tetrahydroisoquinoline derivatives, pharmaceutical compositions and uses thereof” (Boehringer Ingelheim International GmbH, priority 2014, dated 2016).

biological target: human ACC2 (Homo sapiens (Human), UniProt O00763); assay: ACC2 assay: spectrophotometric 384 well assay (coupled lactate dehydrogenase/pyruvate kinase); format: biochemical; settings: hACC2 construct lacking the 128 N-terminal amino acids, 25° C., 340 nm
Method: Spectrophotometric 384 Well Assay
Malonyl CoA formation by acetyl CoA carboxylases is stoichiometrically linked to the consumption of ATP. ACC2 activity is measured in a […] kinetic method measuring ADP generated during the ACC reaction using a coupled lactate dehydrogenase/pyruvate kinase reaction.
For biological testing, a human ACC2 construct which lacks the 128 amino acids at the N-terminus for increased solubility (nt 385-6966 in Genbank entry AJ575592) is cloned. The protein is then expressed in insect cells using a baculoviral expression system. Protein purification is performed by anion exchange.
All compounds are dissolved in dimethyl sulfoxide (DMSO) to a concentration of 10 mM.
Assay reactions are then carried out in 384-well plates, with hACC2 in an appropriate dilution and at final assay concentrations (f.c.) of 100 mM Tris (pH 7.5), 10 mM trisodium citrate, 25 mM KHCO3, 10 mM MgCl2, 0.5 mg/ml BSA, 3.75 mM reduced L-glutathione, 15 U/ml lactate dehydrogenase, 0.5 mM phosphoenolpyruvate, 15 U/ml pyruvate kinase, compounds at different concentrations at final DMSO concentrations of 1%.
The enzymatic reaction is then started by addition of a mixture of NADH, acetyl Coenzyme A (both […].) and ATP (500 uM f.c.). The decrease of the optical density (slope S) is then determined at 25° C. at a wavelength of 340 nm over 15 minutes in a spectrophotometric reader.
Each assay microtiter plate contains wells with vehicle instead of compound as controls for the non-inhibited enzyme (100% CTL; ‘HIGH’) and wells without acetyl-CoA as controls for non-specific NADH degradation (0% CTL; ‘LOW’).
The slope S is used for calculation of % CTL=(S(compound)−S(‘LOW’))/(S(‘HIGH’)−S(‘LOW’))*100. Compounds will give values between 100% CTL (no inhibition) and 0% CTL (complete inhibition).
For IC50 value determination, the sample slope in the presence of the test compound after subtraction of the low controls (S(compound)−S(‘LOW’)) are used.
An IC50 value is derived from the compound slopes at different dosages after subtraction of the low controls (S(compound)-S(‘LOW’)) by non-linear regression curve fitting (equation y=(A+((B−A)/(1+((C/x)^D))))).

human ACC2, sequence (O00763 129-2458): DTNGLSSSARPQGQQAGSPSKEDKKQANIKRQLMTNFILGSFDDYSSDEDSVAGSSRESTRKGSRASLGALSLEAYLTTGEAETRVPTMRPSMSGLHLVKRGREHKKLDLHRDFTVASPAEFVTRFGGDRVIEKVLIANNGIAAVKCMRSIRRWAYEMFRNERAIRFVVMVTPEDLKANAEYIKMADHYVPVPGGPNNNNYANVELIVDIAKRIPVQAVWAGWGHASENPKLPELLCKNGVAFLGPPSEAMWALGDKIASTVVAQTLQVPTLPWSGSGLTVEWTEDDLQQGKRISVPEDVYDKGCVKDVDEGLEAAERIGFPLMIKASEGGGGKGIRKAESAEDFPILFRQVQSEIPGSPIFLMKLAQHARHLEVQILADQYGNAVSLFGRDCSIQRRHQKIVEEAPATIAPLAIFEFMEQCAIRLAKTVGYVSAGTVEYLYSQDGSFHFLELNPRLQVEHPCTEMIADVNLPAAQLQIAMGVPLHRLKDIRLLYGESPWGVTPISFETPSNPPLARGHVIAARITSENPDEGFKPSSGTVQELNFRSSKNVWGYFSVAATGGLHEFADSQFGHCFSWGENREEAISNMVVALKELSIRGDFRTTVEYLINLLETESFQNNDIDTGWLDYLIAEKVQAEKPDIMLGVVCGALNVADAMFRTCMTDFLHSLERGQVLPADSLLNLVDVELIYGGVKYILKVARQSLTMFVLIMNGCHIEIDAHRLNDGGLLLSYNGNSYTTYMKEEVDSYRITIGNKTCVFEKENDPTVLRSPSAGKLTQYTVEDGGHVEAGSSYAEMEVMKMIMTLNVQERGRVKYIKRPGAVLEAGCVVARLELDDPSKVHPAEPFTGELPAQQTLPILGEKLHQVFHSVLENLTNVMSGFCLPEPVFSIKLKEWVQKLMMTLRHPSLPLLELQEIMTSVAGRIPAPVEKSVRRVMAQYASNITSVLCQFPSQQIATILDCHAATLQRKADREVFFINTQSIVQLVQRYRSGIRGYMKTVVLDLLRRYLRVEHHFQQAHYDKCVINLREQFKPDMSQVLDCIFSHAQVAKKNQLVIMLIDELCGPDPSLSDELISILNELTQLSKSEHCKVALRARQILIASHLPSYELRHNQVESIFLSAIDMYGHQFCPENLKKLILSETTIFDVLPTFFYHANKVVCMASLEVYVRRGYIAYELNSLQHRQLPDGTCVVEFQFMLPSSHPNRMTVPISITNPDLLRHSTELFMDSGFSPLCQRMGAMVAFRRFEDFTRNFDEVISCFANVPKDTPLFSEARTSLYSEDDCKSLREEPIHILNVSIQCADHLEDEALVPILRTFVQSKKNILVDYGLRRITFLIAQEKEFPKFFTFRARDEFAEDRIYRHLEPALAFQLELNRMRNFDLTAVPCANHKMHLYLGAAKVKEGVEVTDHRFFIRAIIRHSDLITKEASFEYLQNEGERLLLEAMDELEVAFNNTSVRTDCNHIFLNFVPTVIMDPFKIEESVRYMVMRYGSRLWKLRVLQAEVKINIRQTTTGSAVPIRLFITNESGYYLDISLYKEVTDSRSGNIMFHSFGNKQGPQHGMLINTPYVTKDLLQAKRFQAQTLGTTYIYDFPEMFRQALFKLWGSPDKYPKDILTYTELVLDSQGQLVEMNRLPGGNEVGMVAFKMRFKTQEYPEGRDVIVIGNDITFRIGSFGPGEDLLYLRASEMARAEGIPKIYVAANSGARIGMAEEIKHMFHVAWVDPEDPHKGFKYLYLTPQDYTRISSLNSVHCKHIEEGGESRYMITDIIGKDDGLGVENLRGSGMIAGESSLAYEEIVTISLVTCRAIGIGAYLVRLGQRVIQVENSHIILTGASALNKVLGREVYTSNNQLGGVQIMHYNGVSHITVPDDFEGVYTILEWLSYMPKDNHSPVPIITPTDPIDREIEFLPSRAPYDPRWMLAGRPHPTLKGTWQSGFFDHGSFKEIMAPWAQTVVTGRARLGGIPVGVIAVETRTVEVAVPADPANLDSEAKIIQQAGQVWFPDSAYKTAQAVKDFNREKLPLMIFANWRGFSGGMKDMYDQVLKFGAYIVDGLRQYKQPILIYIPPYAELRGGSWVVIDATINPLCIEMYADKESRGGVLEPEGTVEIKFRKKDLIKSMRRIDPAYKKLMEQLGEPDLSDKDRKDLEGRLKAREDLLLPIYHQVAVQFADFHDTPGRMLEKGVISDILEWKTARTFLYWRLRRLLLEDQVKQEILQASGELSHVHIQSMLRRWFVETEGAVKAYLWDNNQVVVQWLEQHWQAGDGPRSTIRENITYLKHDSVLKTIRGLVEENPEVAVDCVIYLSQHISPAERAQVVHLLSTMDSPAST

`C[C@H](NC(=O)C1CC1)c1ccc(CN2Cc3ccc(OCC4CC4)cc3C(F)C2)cc1` (stereo partly drawn) [Example 1.059] and `C[C@H](NC(=O)[C@H]1C[C@H](F)C1)c1ccc(CN2Cc3ccc(OCC4CC4)cc3C(F)C2)cc1` (stereo partly drawn) [Example 3.023] are within 1.5-fold of each other in IC50: 58 nM for the first, 45 nM for the second.

Going from `C[C@H](NC(=O)c1cncnc1)c1ccc(CN2CC(=O)c3cc(OCC4CC4(F)F)ccc3C2)cc1` (stereo partly drawn) [Example 2.038] to `CC(=O)N[C@@H](C)c1ccc(CN2CC(=O)c3cc(OCC4CC4(F)F)ccc3C2)cc1` (stereo partly drawn) [Example 7.009], the IC50 falls from 819 nM to 50 nM (16-fold). The second is the more potent here.

First: C[C@H](NC(=O)CN)c1ccc(CN2Cc3ccc(OCC4CC4)cc3C(F)C2)cc1 (stereo partly drawn) [Example 3.058]
Second: C[C@H](NC(=O)CC#N)c1ccc(CN2Cc3ccc(OCC4CC4)cc3C(F)C2)cc1 (stereo partly drawn) [Example 3.026]
The IC50 of the first is 5.4-fold higher: 266 nM for the first, 49 nM for the second.

`CC(=O)NC(C)c1ccc(CN2CCc3c(ccc(OCC4CCC4)c3Cl)C2)cc1` (stereo not drawn) [Example 1.033] and `CC(=O)NC(C)c1ccc(CN2CCc3c(ccc(OCC4CC4)c3Cl)C2)cc1` (stereo not drawn) [Example 1.026] are within 1.5-fold of each other in IC50: 44 nM for the first, 43 nM for the second.

Going from `CCOc1ccc2c(c1OC)CCN(Cc1ccc([C@H](C)NC(C)=O)cc1)C2` [Example 1.067] to `COc1c(OC(C)C)ccc2c1CCN(Cc1ccc([C@H](C)NC(C)=O)cc1)C2` [Example 1.069], the IC50 rises from 233 nM to 418 nM (1.8-fold).

`CC(=O)Nc1nc(C)c(C(=O)N[C@@H](C)c2ccc(CN3Cc4ccc(OCC5CC5(F)F)cc4C(O)C3)cc2)s1` (stereo partly drawn) [Example 2.035] and `CCC(=O)Nc1nc(C)c(C(=O)N[C@@H](C)c2ccc(CN3Cc4ccc(OCC5CC5)cc4C(O)C3)cc2)s1` (stereo partly drawn) [Example 3.040] are within 1.5-fold of each other in IC50: 259 nM for the first, 189 nM for the second.

Going from `C[C@H](NC(=O)N(C)C)c1ccc(CN2Cc3ccc(OCC4CC4(F)F)cc3C(F)C2)cc1` (stereo partly drawn) [Example 5.004] to `C[C@H](NC(=O)CO)c1ccc(CN2Cc3ccc(OCC4CC4(F)F)cc3C(F)C2)cc1` (stereo partly drawn) [Example 2.034], the IC50 rises from 17 nM to 55 nM (3.2-fold).

`CC(=O)N[C@@H](C)c1ccc(CN2CCc3cc(OCC4CC4(F)F)ccc3C2)cc1` (stereo partly drawn) [Example 7.003] and `C[C@H](NC(=O)N(C)C)c1ccc(CN2CCc3cc(OCC4CC4(F)F)ccc3C2)cc1` (stereo partly drawn) [Example 5.003] are within 1.5-fold of each other in IC50: 26 nM for the first, 20 nM for the second.

Going from `COc1c(OCCC(F)(F)F)ccc2c1CCN(Cc1ccc([C@H](C)NC(C)=O)cc1)C2` [Example 1.066] to `COc1ccc2c(c1F)CCN(Cc1ccc([C@H](C)NC(C)=O)cc1)C2` [Example 1.080], the IC50 rises from 111 nM to 396 nM (3.6-fold).

First: C[C@H](NC(=O)C(F)F)c1ccc(CN2CCc3cc(OCC4CC4(F)F)ccc3C2)cc1 (stereo partly drawn) [Example 4.003]
Second: C[C@H](NC(=O)C1CC(F)C1)c1ccc(CN2CCc3cc(OCC4CC4(F)F)ccc3C2)cc1 (stereo partly drawn) [Example 3.007]
The IC50 of the first is 2-fold lower: 25 nM for the first, 50 nM for the second.

Going from `C[C@H](NC(=O)[C@@H]1CC[C@H](NC(=O)OC(C)(C)C)C1)c1ccc(CN2Cc3ccc(OCC4CC4)cc3C(F)C2)cc1` (stereo partly drawn) [Example 3.050] to `COC(=O)N[C@@H](C)c1ccc(CN2Cc3ccc(OCC4CC4)cc3C(F)C2)cc1` (stereo partly drawn) [Example 5.009], the IC50 falls from 306 nM to 116 nM (2.6-fold). The second is the more potent here.

First: C[C@H](NC(=O)CC#N)c1ccc(CN2CC(=O)c3cc(OCC4CC4(F)F)ccc3C2)cc1 (stereo partly drawn) [Example 2.04]
Second: C[C@H](NC(=O)CC#N)c1ccc(CN2Cc3ccc(OCC4CC4(F)F)cc3C(F)C2)cc1 (stereo partly drawn) [Example 3.029]
The IC50 of the first is 10-fold higher: 450 nM for the first, 45 nM for the second. The second is the more potent here.

`COC(=O)C1c2ccc(OCC3CC3)cc2CCN1Cc1ccc([C@H](C)NC(C)=O)cc1` (stereo partly drawn) [Example 9.000, 2-[4-((S)-1-Acetylamino-ethyl)-benzyl]-6-cyclopropylmethoxy-1,2,3,4-tetrahydro-isoquinoline-1-carboxylic acid methyl ester] and `COc1c(OCC2CC2)ccc2c1CCN(Cc1ccc([C@H](C)NC(C)=O)cc1)C2C` (stereo partly drawn) [Example 1.086] are within 1.5-fold of each other in IC50: 190 nM for the first, 227 nM for the second.

Compared with `CC(=O)N[C@@H](C)c1ccc(CN2Cc3ccc(OCC4CC4)cc3C(F)(F)C2)cc1` [Example 1.097], `CC(=O)NC(C)c1ccc(CN2CCc3cc(OCC4CCC4)ccc3C2)cc1` (stereo not drawn) [Example 1.011] is 1.8-fold higher in IC50: 38 nM for the first, 67 nM for the second.

`CC(=O)NC(C)c1ccc(CN2CCc3c(Cl)cccc3C2)cc1` (stereo not drawn) [Example 1.004] and `CC(=O)NC(C)c1ccc(CN2CCc3cc(Br)ccc3C2)cc1` (stereo not drawn) [Example 1.003] are within 1.5-fold of each other in IC50: 206 nM for the first, 265 nM for the second.

Going from `CC(=O)NC(C)c1ccc(CN2CCc3cc(OC(F)(F)F)ccc3C2)cc1` (stereo not drawn) [Example 1.007] to `CC(=O)NC(C)c1ccc(CN2CCc3cc(OCC(C)C)ccc3C2)cc1` (stereo not drawn) [Example 1.009], the IC50 falls from 291 nM to 102 nM (2.9-fold). The second is the more potent here.

First: CC(=O)N[C@@H](C)c1ccc(CN2Cc3ccc(OC(C)C)cc3C(O)C2)cc1 (stereo partly drawn) [Example 1.098]
Second: CC(=O)N[C@@H](C)c1ccc(CN2Cc3ccc(OCC4CCC4)cc3C(O)C2)cc1 (stereo partly drawn) [Example 1.101]
The IC50 of the first is 7.1-fold higher: 392 nM for the first, 55 nM for the second.

Going from `COc1c(OCC2CC(F)(F)C2)ccc2c1CCN(Cc1ccc([C@H](C)NC(C)=O)cc1)C2C` (stereo partly drawn) [Example 1.087] to `CCOc1ccc2c(c1OC)CCN(Cc1ccc([C@H](C)NC(C)=O)cc1)C2C` (stereo partly drawn) [Example 1.083], the IC50 rises from 189 nM to 449 nM (2.4-fold). The first is the more potent here.

Compared with `COc1ccc2c(c1F)CCN(Cc1ccc([C@H](C)NC(C)=O)cc1)C2C` (stereo partly drawn) [Example 1.095], `CC(=O)NC(C)c1ccc(CN2CCc3c(ccc(OCCCF)c3Cl)C2)cc1` (stereo not drawn) [Example 1.039] is 8.7-fold lower in IC50: 494 nM for the first, 57 nM for the second.

`CCC(=O)Nc1nc(C)c(C(=O)N[C@@H](C)c2ccc(CN3CCc4cc(OCC5CC5(F)F)ccc4C3)cc2)s1` (stereo partly drawn) [Example 3.017] and `C[C@H](NC(=O)c1cnn(C)c1)c1ccc(CN2CCc3cc(OCC4CC4(F)F)ccc3C2)cc1` (stereo partly drawn) [Example 3.004] are within 1.5-fold of each other in IC50: 37 nM for the first, 46 nM for the second.

Going from `COc1c(OCC2CC(F)(F)C2)ccc2c1CCN(Cc1ccc([C@H](C)NC(=O)C3CC3)cc1)C2` [Example 1.056] to `COc1c(OCC2CC2(F)F)ccc2c1CCN(Cc1ccc([C@H](C)NC(=O)C3CC3)cc1)C2` (stereo partly drawn) [Example 1.053], the IC50 rises from 51 nM to 142 nM (2.8-fold). The first is the more potent here.

`C[C@H](NC(=O)C1CC1)c1ccc(CN2CCc3cc(OCC(F)F)ccc3C2)cc1` [Example 1.046] and `CCOc1ccc2c(c1)CCN(Cc1ccc([C@H](C)NC(=O)C3CC3)cc1)C2` [Example 1.043] are within 1.5-fold of each other in IC50: 163 nM for the first, 180 nM for the second.

`C[C@H](NC(=O)Cc1cncnc1)c1ccc(CN2Cc3ccc(OCC4CC4(F)F)cc3C(F)C2)cc1` (stereo partly drawn) [Example 3.03] and `C[C@H](NC(=O)Cc1cncnc1)c1ccc(CN2CCc3cc(OC[C@@H]4CC4(F)F)ccc3C2)cc1` [Example 2.026] are within 1.5-fold of each other in IC50: 95 nM for the first, 81 nM for the second.

`C[C@H](NC(=O)C1(C#N)CC1)c1ccc(CN2CCc3cc(OCC4CC4(F)F)ccc3C2)cc1` (stereo partly drawn) [Example 3.013] and `C[C@H](NC(=O)C1(C(F)(F)F)CC1)c1ccc(CN2CCc3cc(OCC4CC4(F)F)ccc3C2)cc1` (stereo partly drawn) [Example 3.005] are within 1.5-fold of each other in IC50: 40 nM for the first, 59 nM for the second.

First: C[C@H](NC(=O)C1CC1)c1ccc(CN2Cc3ccc(OCC4CC4(F)F)cc3C(F)C2)cc1 (stereo partly drawn) [Example 1.060]
Second: C[C@H](NC(=O)[C@H]1C[C@H](F)C1)c1ccc(CN2Cc3ccc(OCC4CC4(F)F)cc3C(F)C2)cc1 (stereo partly drawn) [Example 3.031]
The IC50 of the first is 2.7-fold lower: 29 nM for the first, 77 nM for the second. The first is the more potent here.

Going from `C[C@H](NC(=O)c1cn[nH]c1)c1ccc(CN2Cc3ccc(OCC4CC4)cc3C(O)C2)cc1` (stereo partly drawn) [Example 3.063] to `CCNC(=O)N[C@@H](C)c1ccc(CN2Cc3ccc(OCC4CC4)cc3C(O)C2)cc1` (stereo partly drawn) [Example 5.006], the IC50 rises from 266 nM to 872 nM (3.3-fold).

First: C[C@H](NC(=O)C1CC1)c1ccc(CN2CCc3cc(OCCC(F)(F)F)ccc3C2)cc1 [Example 1.045]
Second: CC(=O)NC(C)c1ccc(CN2CCc3cc(OCCC4CC4)ccc3C2)cc1 (stereo not drawn) [Example 1.012]
The IC50 of the first is 1.6-fold higher: 83 nM for the first, 52 nM for the second. The second is the more potent here.

First: C[C@H](NC(=O)c1cncs1)c1ccc(CN2Cc3ccc(OCC4CC4)cc3C(F)C2)cc1 (stereo partly drawn) [Example 3.048]
Second: C[C@H](O)C(=O)N[C@@H](C)c1ccc(CN2Cc3ccc(OCC4CC4)cc3C(F)C2)cc1 (stereo partly drawn) [Example 3.060]
The IC50 of the first is 2.2-fold lower: 59 nM for the first, 132 nM for the second.

Compared with `C[C@H](NC(=O)C1CCC1)c1ccc(CN2CCc3cc(OCC4CC4(F)F)ccc3C2)cc1` (stereo partly drawn) [Example 3.006], `C[C@H](NC(=O)C1CC1)c1ccc(CN2CCc3c(ccc(OCC4CC4(F)F)c3Cl)C2)cc1` (stereo partly drawn) [Example 1.049] is 1.7-fold higher in IC50: 38 nM for the first, 63 nM for the second.

Compared with `C[C@H](NC(=O)c1cncs1)c1ccc(CN2CCc3c(cccc3C(F)(F)F)C2)cc1` [Example 2.006], `COc1cccc2c1CCN(Cc1ccc([C@H](C)NC(=O)c3sc(NC(C)=O)nc3C)cc1)C2` [Example 2.003] is 1.8-fold higher in IC50: 85 nM for the first, 157 nM for the second. The first is the more potent here.

First: CC(=O)N[C@@H](C)c1ccc(CN2Cc3ccc(OCC4CC4(F)F)cc3C(O)C2)cc1 (stereo partly drawn) [Example 1.091]
Second: C[C@H](NC(=O)c1ccns1)c1ccc(CN2CCc3cc(OCC4CC4(F)F)ccc3C2)cc1 (stereo partly drawn) [Example 3.008]
The IC50 of the first is 1.9-fold higher: 130 nM for the first, 68 nM for the second. The second is the more potent here.

For `CC(=O)Nc1nc(C)c(C(=O)N[C@@H](C)c2ccc(CN3CCc4c(cccc4OC4CCC4)C3)cc2)s1` [Example 2.012], the IC50 was 97 nM.
